# Laboratory results reported in paper PMC2041813, “Perturbation of the Dimer Interface of Triosephosphate Isomerase and its Effect on Trypanosoma cruzi” (PLoS Neglected Tropical Diseases, 2007).
# Read-outs that look alike come from different tables or passages of the source.
# Experiments:
# [1] = target: T1, TIM of T. cruzi (TcTIM) (Trypanosoma cruzi, UniProt P52270); experiment: Inhibition of activity of recombinant wild type TcTIM after 2 h incubation; type: biochemical
# T1 construct: made in house; host or cells: Escherichia coli
# T1 sequence (P52270 whole entry): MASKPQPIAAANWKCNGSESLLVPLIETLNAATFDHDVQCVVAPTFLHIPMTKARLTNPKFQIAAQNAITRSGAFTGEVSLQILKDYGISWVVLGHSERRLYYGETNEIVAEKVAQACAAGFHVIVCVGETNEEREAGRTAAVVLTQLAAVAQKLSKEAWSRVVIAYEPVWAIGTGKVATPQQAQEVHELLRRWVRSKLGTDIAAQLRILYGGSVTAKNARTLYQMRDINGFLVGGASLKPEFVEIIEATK
# Procedure: (§1) TcTIM [19] and TIMs from T. brucei, L. mexicana, and Homo sapiens were expressed in Escherichia coli and purified as described in the indicated references. After purification, the enzymes dissolved in 100 mM triethanolamine, 10 mM EDTA and 1 mM dithiothreitol (pH 8) were precipitated with ammonium sulfate (75% saturation) and stored at 4°C. Before use, the enzymes were extensively dialyzed against 100 mM triethanolamine/10 mM EDTA (pH 7.4). Protein was determined from their absorbance at 280 nm. The ε M^−1 cm^−1 was 36440 for TcTIM, and 33460 for TbTIM and LmTIM.
# (§2) In all the experiments, a solution of DTDA in dimethylsulfoxide (DMSO) was used. The final DMSO concentration in all experiments was 10% (v/v).
# (§3) The indicated TIMs were incubated at pH 7.4 at a concentration of 5 µg per ml of 100 mM triethanolamine, 10 mM EDTA, 10% dimethyl sulfoxide (v/v), and DTDA at the concentrations indicated in the Results section for 2 hours at 36°C. At this time, an aliquot was withdrawn for assay of activity.
# (§4) Activity was determined in the direction of glyceraldehyde 3-phosphate to dihydroxyacetone phosphate. The decrease in absorbance at 340 nm was followed in a Hewlett Packard spectrophotometer at 25°C. The reaction mixture (1 ml) contained 100 mM triethanolamine, 10 mM EDTA, 0.2 mM NADH, 1 mM glyceraldehyde 3-phosphate, and 0.9 units α-glycerolphosphate dehydrogenase (pH 7.4). The reaction was started by the addition of TIM, usually 5 ng. The average specific activity of the various preparations of TcTIM used in this work was 2900±200 µmol/min/mg.
# [2] = system: rodents; parameters: method as in PMID 7265299; conditions: cited from earlier work
# [3] = target: T2, TcTIM C118V (Trypanosoma cruzi, UniProt P52270, C118V); experiment: Inhibition of activity of TcTIM C118V mutant; type: biochemical; conditions: 2 h, 36°C, 10% DMSO, read-out: IC50, concentration of DTDA that induces 50% inhibition
# T2 construct: made in house
# T2 sequence (P52270 whole entry C118V): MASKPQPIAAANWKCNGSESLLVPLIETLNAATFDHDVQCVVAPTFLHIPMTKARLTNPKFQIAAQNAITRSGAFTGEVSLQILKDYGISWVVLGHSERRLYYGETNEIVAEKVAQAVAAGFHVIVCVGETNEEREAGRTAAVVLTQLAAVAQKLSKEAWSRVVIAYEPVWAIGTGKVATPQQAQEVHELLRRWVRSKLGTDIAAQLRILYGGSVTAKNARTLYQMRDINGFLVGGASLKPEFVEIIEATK
# Procedure: as §2, §3, §4
# [4] = system: E. coli JM103 cells; experiment: Growth of intact E. coli (own TIM) in minimal media; type: cell-based, Escherichia coli; conditions: 30 µM, M9 medium, 10% DMSO, absorbance at 600 nm
# Procedure: (§5) E. coli JM103 cells were used as control. E. coli devoid of their endogenous TIM termed VR101 [10] were kindly provided by Dr. Gloria Saab-Rincón; these cells have a kanamicin resistant cassette. […] The strains were grown at 37°C in solid Luria-Bertani medium that had been supplemented with 50 µg of kanamycin and 50 µg of ampicilin per ml. One colony was transferred to M9 medium that had 10% DMSO and 50 µg of each of the latter antibiotics per ml. Growth of the various cells was followed throughout time by measuring the absorbance of the culture at 600 nm.
# [5] = target: T3, TbTIM (Trypanosoma brucei brucei, UniProt P04789); experiment: Inhibition of activity of TbTIM after 2 h incubation; type: biochemical
# T3 construct: made in house; host or cells: Escherichia coli
# T3 sequence (P04789 whole entry): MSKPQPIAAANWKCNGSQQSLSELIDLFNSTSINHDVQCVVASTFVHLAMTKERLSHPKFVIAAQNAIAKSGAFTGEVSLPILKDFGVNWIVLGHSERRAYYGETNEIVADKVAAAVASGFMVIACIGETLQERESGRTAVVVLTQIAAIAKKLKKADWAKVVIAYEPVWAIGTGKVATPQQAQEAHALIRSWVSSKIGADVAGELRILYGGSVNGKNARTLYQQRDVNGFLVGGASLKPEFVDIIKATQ
# Procedure: as §1, §2, §3
# as §4, with “The reaction was started by the addition of TIM, usually 5 ng. The average specific activity of the various preparations of TcTIM used in this work was 2900±200 µmol/min/mg.” left out
# [6] = target: T4, LmTIM (Leishmania mexicana, UniProt P48499); experiment: Inhibition of activity of LmTIM after 2 h incubation; type: biochemical
# T4 construct: made in house; host or cells: Escherichia coli
# T4 sequence (P48499 whole entry): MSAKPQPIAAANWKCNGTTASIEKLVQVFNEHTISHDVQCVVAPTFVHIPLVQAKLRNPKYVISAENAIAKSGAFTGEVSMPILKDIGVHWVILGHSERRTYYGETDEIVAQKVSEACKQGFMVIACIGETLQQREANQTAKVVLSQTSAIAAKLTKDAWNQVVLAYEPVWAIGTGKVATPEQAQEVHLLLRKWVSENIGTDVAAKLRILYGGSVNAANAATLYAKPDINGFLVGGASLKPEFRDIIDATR
# Procedure: as §1, §2, §3, §4
# [7] = target: T5, TcTIM C15A (Trypanosoma cruzi, UniProt P52270, C15A); experiment: Inhibition of activity of TcTIM C15A mutant; type: biochemical; conditions: 2 h, 36°C, 10% DMSO, read-out: IC50, concentration of DTDA that induces 50% inhibition
# T5 construct: made in house
# T5 sequence (P52270 whole entry C15A): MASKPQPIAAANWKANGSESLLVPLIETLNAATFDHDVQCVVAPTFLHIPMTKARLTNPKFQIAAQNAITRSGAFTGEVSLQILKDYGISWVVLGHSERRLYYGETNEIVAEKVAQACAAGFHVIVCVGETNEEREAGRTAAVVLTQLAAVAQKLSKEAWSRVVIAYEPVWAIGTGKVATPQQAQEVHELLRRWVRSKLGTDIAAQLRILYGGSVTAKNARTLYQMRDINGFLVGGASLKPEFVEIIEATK
# Procedure: as §2, §3, §4
# [8] = system: hemoglobin; parameters: method as in PMID 4078222; conditions: cited from earlier work
# [9] = system: E. coli cells that had TcTIM instead of their own TIM; experiment: Growth of E. coli devoid of endogenous TIM transformed with TcTIM; type: cell-based, Escherichia coli
# Procedure: as §5
# [10] = target: T6, TcTIM C40A (Trypanosoma cruzi, UniProt P52270, C40A); experiment: Inhibition of activity of TcTIM C40A mutant; type: biochemical; conditions: half-maximal inhibition of the initial phase (biphasic response), read-out: IC50, concentration of DTDA that induces 50% inhibition
# T6 construct: made in house
# T6 sequence (P52270 whole entry C40A): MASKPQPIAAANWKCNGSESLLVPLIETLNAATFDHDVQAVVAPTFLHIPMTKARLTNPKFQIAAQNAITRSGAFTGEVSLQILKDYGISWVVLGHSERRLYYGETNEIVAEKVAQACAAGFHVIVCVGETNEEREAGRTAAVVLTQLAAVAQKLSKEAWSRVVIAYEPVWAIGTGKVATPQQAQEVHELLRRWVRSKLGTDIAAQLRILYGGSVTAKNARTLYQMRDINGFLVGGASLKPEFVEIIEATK
# Procedure: as §2, §3, §4
# [11] = target: T7, TIM from H. sapiens (HTIM) (Homo sapiens, UniProt P60174); experiment: Inhibition of activity of human TIM after 2 h incubation; type: biochemical
# T7 construct: made in house; host or cells: Escherichia coli
# T7 sequence (P60174 whole entry): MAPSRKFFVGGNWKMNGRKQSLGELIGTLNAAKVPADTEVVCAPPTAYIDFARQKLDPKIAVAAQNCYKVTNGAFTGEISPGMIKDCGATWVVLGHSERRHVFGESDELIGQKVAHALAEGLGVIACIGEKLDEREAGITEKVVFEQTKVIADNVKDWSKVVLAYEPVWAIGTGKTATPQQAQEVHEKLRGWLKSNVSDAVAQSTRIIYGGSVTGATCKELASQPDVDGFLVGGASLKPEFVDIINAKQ
# Procedure: as §1, §2, §3, §4
# [12] = system: T. cruzi epimastigotes; experiment: Culture of T. cruzi epimastigotes, cell number up to 72 hours; type: cell-based, Trypanosoma cruzi
# Procedure: Where indicated in the Results section, the media was supplemented with the indicated concentrations of DTDA. The number of cells was recorded at various times for as long as 72 hours.
# [13] = target: TbTIM V118C (Trypanosoma brucei brucei, UniProt P04789, V117C); experiment: Inhibition of activity of TbTIM V118C mutant; type: biochemical
# Sequence of TbTIM V118C (P04789 whole entry V117C): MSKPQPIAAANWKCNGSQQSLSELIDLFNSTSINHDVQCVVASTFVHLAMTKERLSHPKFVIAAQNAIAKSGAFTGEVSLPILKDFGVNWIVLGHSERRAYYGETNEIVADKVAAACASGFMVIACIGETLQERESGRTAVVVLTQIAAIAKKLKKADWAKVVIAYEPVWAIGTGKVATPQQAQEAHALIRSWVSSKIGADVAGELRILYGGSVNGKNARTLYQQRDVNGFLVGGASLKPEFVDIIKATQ
# Procedure: as §2, §3, §4
# [14] = target: T8, TcTIM C127A (Trypanosoma cruzi, UniProt P52270, C127A); experiment: Inhibition of activity of TcTIM C127A mutant; type: biochemical; conditions: 2 h, 36°C, 10% DMSO, read-out: IC50, concentration of DTDA that induces 50% inhibition
# T8 construct: made in house
# T8 sequence (P52270 whole entry C127A): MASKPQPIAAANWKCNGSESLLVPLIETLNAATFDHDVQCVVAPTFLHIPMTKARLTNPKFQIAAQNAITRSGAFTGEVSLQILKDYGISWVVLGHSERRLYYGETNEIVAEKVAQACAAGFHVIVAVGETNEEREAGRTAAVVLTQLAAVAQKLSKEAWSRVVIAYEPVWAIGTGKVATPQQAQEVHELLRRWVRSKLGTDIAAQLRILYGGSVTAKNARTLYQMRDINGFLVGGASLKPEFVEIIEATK
# Procedure: as §2, §3, §4
# [15] = system: rats; parameters: method as in PMID 4078223; conditions: cited from earlier work
# [16] = concentrations as high as 200 µM
compound,measurement,setting,value
"Nc1ccccc1SCSc1ccccc1N [2,2′-(methylenebisthioaniline)]",IC50,[1]; read-out: concentration required to inhibit the activity of TcTIM by 50%,50 µM
diaminodiphenyldisulfide,toxic effect on the kidney,[2],atrophy and hyperplasia in the kidney
same,toxic effect on the liver,[2],necrotic changes in the liver
"Nc1ccccc1SSc1ccccc1N [DTDA, 2,2′-dithiodianiline]",IC50,[3],0.208 ± 0.037 µM
same,IC50,"[1]; 2 h, 36°C, 10% DMSO, read-out: concentration that induced 50% inhibition of the activity of TcTIM",0.26 µM
same,IC50,"[1]; TcTIM wild, 5 µg/ml enzyme, 2 h, 36°C, 10% DMSO, read-out: IC50, concentration of DTDA that induces 50% inhibition",0.258 ± 0.035 µM
same,effect on growth of E. coli cells that worked with their own TIM,[4],had no effect
same,effect on the activity of TbTIM,"[5]; 10 µM, 2 h, 36°C",did not affect
same,sensitivity of TbTIM activity,[5]; [16],completely insensitive
same,effect on the activity of LmTIM,"[6]; 10 µM, 2 h, 36°C",did not affect
same,IC50,"[6]; LmTIM, 2 h, 36°C, 10% DMSO, read-out: IC50, concentration of DTDA that induces 50% inhibition",> 200 µM
same,sensitivity of LmTIM activity,[6]; [16],completely insensitive
same,IC50,[7],0.346 ± 0.032 µM
same,effect on hemoglobin,[8],irreversible oxidation of hemoglobin
same,effect on growth of E. coli cells that relied on the function of TcTIM,"[9]; 30 µM, M9 medium, 10% DMSO, absorbance at 600 nm",effectively prevented
same,effect on the lag that precedes logarithmic growth of TcTIM transformed E. coli,[9]; concentrations as low as 4 µM,important increase in the lag
same,permeability of biological membranes to the compound,[9]; inferred from the effect on TcTIM transformed E. coli,permeable
same,IC50,[10],1.53 ± 0.45 µM
same,effect on the activity of HTIM,"[11]; 10 µM, 2 h, 36°C",did not affect
same,IC50,"[11]; 2 h, 36°C, 10% DMSO, read-out: concentration for fifty percent inhibition of HTIM activity",98 µM
same,selectivity for TcTIM in reference to HTIM,"[11]; ratio of concentrations for 50% inhibition, HTIM vs TcTIM",~400 times
same,effect on growth of T. cruzi epimastigotes,"[12]; 4 µM, up to 72 hours",inhibition of growth
same,effect on survival of T. cruzi parasites in cell cultures,[12]; 10 µM and 15 µM,causes death of parasites
same,effect on growth of T. cruzi epimastigotes,[12]; 4–8 µM,significant inhibition of the growth
same,effect on the number of T. cruzi epimastigotes in culture,"[12]; concentrations higher than 8 µM, up to 72 hours",significant decrease in the number of cells
same,IC50,[13],> 200 µM
same,sensitivity of TbTIM V118C mutant activity,[13]; 200 µM,insensitive
same,IC50,[14],0.057 ± 0.008 µM
"Nc1ccc(SSc2ccc(N)cc2)cc1 [4,4′-diamino disulfide]",toxic effect on administration to rats,[15],hematological alterations
